Where “and” joins values, the source holds several entries; their conditions need not be identical. Identical values can stand only once.

What all share (assay type): in vivo
For data set [1], the system named is Ipomoea hederacea (ivyleaf morningglory). Put plainly: Greenhouse postemergence herbicidal effect on IPOHE. The text has this: (§1) Seeds of the desired test plant species were planted in a 90:10% v/v (volume/volume) mixture of PRO-MIX® BX (Premier Tech Horticulture, Quakertown, Pa., USA) and PROFILE® GREENS GRADE™ (Profile Products LLC, Buffalo Grove, Ill., USA) planting mixture, which typically has a pH of 5.2 to 6.2 and an organic matter content of at least 50 percent, in plastic pots with a surface area of 103.2 square centimeters (cm^2). In some aspects, to help ensure good germination and healthy plants, a fungicide treatment and/or other chemical or physical treatment was applied. The plants were grown for 7-36 days (d) in a greenhouse with an approximate 14-hour (h) photoperiod which was maintained at about 23° C. during the day and 22° C. during the night. Nutrients and water were added on a regular basis and supplemental lighting was provided with overhead metal halide 1000-Watt lamps as necessary. The plants were employed for testing when they reached the second or third true leaf stage.
(§2) Emulsifiable concentrates of each of each pyridine carboxylate herbicide (Compound A or Compound B) were prepared at 100 grams acid equivalent per liter (g ae/L). The emulsifiable concentrates also included a safener, cloquintocet-mexyl, at 120 grams active ingredient per liter (g ai/L). […]
(§3) The treated plants and control plants were placed in a greenhouse as described above and watered by sub-irrigation to prevent wash-off of the test compounds. After 20-22 d, the condition of the test plants as compared with that of the control plants was determined visually and scored on a scale of 0 to 100 percent where 0 corresponds to no injury and 100 corresponds to complete kill.

The subject of data set [2] is Abutilon theophrasti (velvetleaf). Put plainly: Greenhouse postemergence herbicidal effect on ABUTH.
Text: as §1
(§4) Emulsifiable concentrates of each of each pyridine carboxylate herbicide (Compound A or Compound B) were prepared at 100 grams acid equivalent per liter (g ae/L). The emulsifiable concentrates also included a safener, cloquintocet-mexyl, at 120 grams active ingredient per liter (g ai/L). An aliquot of each emulsifiable concentrate was placed in a 25 mL glass vial and diluted with an aqueous mixture of 1.25% (v/v) ACTIROB® B esterified rapeseed oil (Bayer Crop Science, Research Triangle Park, N.C., USA) or MSO® Concentrate with LECI-TECH® methylated soybean oil (Loveland Products, Loveland, Colo., USA) to obtain concentrated stock solutions at the highest application rate for each herbicide, based upon a 12 milliliter (mL) application volume at a rate of 187 liters per hectare (L/ha). The concentrated stock solutions were further diluted with an aqueous mixture of 1.25% v/v ACTIROB® B or MSO® Concentrate with LECI-TECH® to obtain stock solutions at reduced application rates for each herbicide. Spray solutions of the herbicide combinations (Compound A or Compound B plus the PGR) were prepared by adding weighed amounts or aliquots of the PGR to the stock solutions of Compound A or Compound B to form 12-mL spray solutions in two-way combinations.
(§5) The spray solutions were applied to the plant material with an overhead Mandel track sprayer equipped with 8002E nozzles calibrated to deliver 187 L/ha over an application area of 0.503 square meters (m^2) at a spray height of 18 inches (43 centimeters (cm)) above the average plant canopy. Control plants were sprayed in the same manner with the solvent blank. All pyridine carboxylate herbicide (component a) application rates are given as “g ae/ha” and all PGR (component b) application rates are given as “g ai/ha.”
as §3

In data set [3] the test system is Brassica napus (spring rape). Put plainly: Greenhouse postemergence herbicidal effect on BRSNN.
Text: as §1, §4, §5, §3

Data set [4] relates to Stellaria media (chickweed). Put plainly: Greenhouse postemergence herbicidal effect on STEME.
Text: as §1, §4, §5, §3

The subject of the next data set is Kochia scoparia (kochia). Put plainly: Greenhouse postemergence herbicidal effect on KCHSC.
Text: as §1, §4, §5, §3

For data set [5], the system named is Setaria faberi (giant foxtail). Put plainly: Greenhouse postemergence herbicidal effect on SETFA.
Text: as §1, §4, §5, §3

In a further data set the test system is Glycine max (soybean). In words: Greenhouse postemergence herbicidal effect on GLXMA.
Text: as §1, §4, §5, §3

The subject of data set [6] is Amaranthus retroflexus (pigweed). Put plainly: Greenhouse postemergence herbicidal effect on AMARE.
Text: as §1, §4, §5, §3

In data set [7] the test system is Helianthus annuus (common sunflower). Put plainly: Greenhouse postemergence herbicidal effect on HELAN.
Text: as §1, §4, §5, §3

Data set [8] has as its system Polygonum convolvulus (wild buckwheat). In words: Greenhouse postemergence herbicidal effect on POLCO.
Text: as §1, §4, §5, §3

The test system of data set [9] is Viola tricolor (wild pansy). In words: Greenhouse postemergence herbicidal effect on VIOTR.
Text: as §1, §4, §5, §3

In data set [10] the test system is Cirsium arvense (Canada thistle). In words: Greenhouse postemergence herbicidal effect on CIRAR.
Text: as §1, §4, §5, §3

The subject of the next data set is Zea mays (maize). The settings on record: Compound A 0 g/ha, Ethephon 140 g/ha.
Text: as §1, §4, §5, §3

In data set [11] the test system is Sorghum vulgare (grain sorghum). The settings on record: Compound A 0 g/ha, Ethephon 140 g/ha.
Text: as §1, §4, §5, §3

Data set [12] concerns Chenopodium album L. (common lambsquarters). Put plainly: Greenhouse postemergence herbicidal effect on CHEAL.
Text: as §1, §4, §5, §3

Another data set concerns rice (ORYSA). The conditions noted are these: Compound A 0 g/ha, Ethephon 140 g/ha.
Text: as §1, §2
(§6) The treated plants and control plants were placed in a greenhouse as described above and watered by sub-irrigation to prevent wash-off of the test compounds. After 20-22 d, the condition of the test plants as compared with that of the control plants was determined visually and scored on a scale of 0 to 100 percent where 0 corresponds to no injury and 100 corresponds to complete kill. […]

In data set [13] the test system is Euphorbia heterophylla (poinsettia). In words: Greenhouse postemergence herbicidal effect on EPHHL.
Text: as §1, §4, §5, §3

The subject of data set [14] is Digitaria sanguinalis (large crabgrass). In words: Greenhouse postemergence herbicidal effect on DIGSA. The conditions noted are these: Compound A 0 g/ha, Ethephon 140 g/ha.
Text: as §1, §2, §6

In data set [15] the test system is Echinochloa crus-galli (barnyard grass). Put plainly: Greenhouse postemergence herbicidal effect on ECHCG. The conditions noted are these: Compound A 0 g/ha, Ethephon 140 g/ha.
Text: as §1, §2, §6

Data set [16] relates to Cyperus esculentus (yellow nutsedge). In words: Greenhouse postemergence herbicidal effect on CYPES. The conditions noted are these: Compound A 0 g/ha, Ethephon 140 g/ha.
Text: as §1, §2, §6

For data set [17], the system named is Rumex obtusifolia (broadleaf dock). In words: Greenhouse postemergence herbicidal effect on RUMOB. The settings on record: Compound A 0 g/ha, Ethephon 140 g/ha.
Text: as §1, §2, §6

[18] abbreviates: Compound A 0 g/ha, Ethephon 140 g/ha.

Turning to `O=C(O)Cc1c[nH]c2ccccc12` [IAA, indol-3-ylacetic acid, reference compound], the “% visual injury Obs” value in data set [1] (PGR 140 g ai/ha alone) is on record as 0%; in data set [2] (PGR 140 g ai/ha alone), 0%; in data set [3] (PGR 140 g ai/ha alone), 0%; in data set [4] (PGR 140 g ai/ha alone), 5%; with Kochia scoparia (kochia) (PGR 140 g ai/ha alone), 0%; in data set [5] (PGR 140 g ai/ha alone), 0%. For the same compound, the “% visual injury Obs” value (in the data set with Glycine max (soybean) (PGR 140 g ai/ha alone); in data set [6] (PGR 140 g ai/ha alone); in data set [7] (PGR 140 g ai/ha alone); in data set [8] (PGR 140 g ai/ha alone); in [9] (PGR 140 g ai/ha alone); in data set [10] (PGR 140 g ai/ha alone)) was 0% throughout.
For the compound `O=P(O)(O)CCCl` [Ethephon, reference compound], the “Herbicidal Effects (% visual injury) ZEAMX Obs” value with Zea mays (maize) came to 0%. In addition, the “Herbicidal Effects (% visual injury) SORVU Obs” value in data set [11] is listed as 0%. Also, the “Herbicidal Effects (% visual injury) ABUTH Obs” value in [2] (setting [18]) was found to be 0%. Further, in [12] (setting [18]), the “Herbicidal Effects (% visual injury) CHEAL Obs” value amounted to 0%. Moreover, the “Herbicidal Effects (% visual injury) ORYSA Obs” value in the data set on rice (ORYSA) came to 0%. In addition, the “Herbicidal Effects (% visual injury) BRSNN Obs” value in data set [3] (setting [18]) was found to be 0%. Also, the “Herbicidal Effects (% visual injury) STEME Obs” value in data set [4] (setting [18]) is reported as 0%. In addition, the “Herbicidal Effects (% visual injury) EPHHL Obs” value in data set [13] (setting [18]) is listed as 0%. Further, in the data set on Kochia scoparia (kochia) (setting [18]), the “Herbicidal Effects (% visual injury) KCHSC Obs” value came out at 0%. Also, in data set [14], the “Herbicidal Effects (% visual injury) DIGSA Obs” value is 0%. Also, in data set [5] (setting [18]), the “Herbicidal Effects (% visual injury) SETFA Obs” value was found to be 0%. Besides, the “Herbicidal Effects (% visual injury) ECHCG Obs” value in data set [15] is on record as 0%. For the same compound, the “Herbicidal Effects (% visual injury) CYPES Obs” value in [16] is 0%. The “Herbicidal Effects (% visual injury) AMARE Obs” value in data set [6] (setting [18]) came out at 0%. The “Herbicidal Effects (% visual injury) HELAN Obs” value in [7] (setting [18]) came out at 0%. For the same compound, the “Herbicidal Effects (% visual injury) RUMOB Obs” value in data set [17] came to 0%. The “Herbicidal Effects (% visual injury) POLCO Obs” value in [8] (setting [18]) is on record as 0%. Besides, in data set [9] (setting [18]), the “Herbicidal Effects (% visual injury) VIOTR Obs” value is 0%. The “Herbicidal Effects (% visual injury) CIRAR Obs” value in [10] (setting [18]) turned out to be 0%.
With `O=C(O)CCCc1c[nH]c2ccccc12` [IBA, indol-3-butyric acid, reference compound], the “% visual injury Obs” value is recorded as 0% in [1] (PGR 140 g ai/ha alone); 0% in [2] (PGR 140 g ai/ha alone); 0% in data set [3] (PGR 140 g ai/ha alone); 8% in data set [4] (PGR 140 g ai/ha alone); 0% in the data set with Kochia scoparia (kochia) (PGR 140 g ai/ha alone); 5% in data set [5] (PGR 140 g ai/ha alone). For the same compound, the “% visual injury Obs” value with Glycine max (soybean) (PGR 140 g ai/ha alone) amounted to 0%; in data set [6] (PGR 140 g ai/ha alone) it was 0%; in data set [7] (PGR 140 g ai/ha alone), 0%; in data set [8] (PGR 140 g ai/ha alone) it was 0%; in data set [9] (PGR 140 g ai/ha alone), 3%; in [10] (PGR 140 g ai/ha alone), 0%.
Turning to `C#CCOC(=O)c1nc(-c2ccc3cc[nH]c3c2F)c(F)c(N)c1Cl` [Compound B, propargyl 4-amino-3-chloro-5-fluoro-6-(7-fluoro-1H-indol-6-yl)pyridine-2-carboxylate], the “% visual injury Obs” value is 68% in data set [2] (herbicide 7.5 g ae/ha alone); 68% in [2] (herbicide 10 g ae/ha alone); 85% in [12] (herbicide 7.5 g ae/ha alone); 90% in data set [12] (herbicide 10 g ae/ha alone); 68% in [3] (herbicide 7.5 g ae/ha alone); 85% in data set [3] (herbicide 10 g ae/ha alone). Further, the “% visual injury Obs” value in data set [4] (herbicide 7.5 g ae/ha alone) came to 10%; in data set [4] (herbicide 10 g ae/ha alone), 93%; in [13] (herbicide 7.5 g ae/ha alone), 83%; in data set [13] (herbicide 10 g ae/ha alone), 99%; in the data set with Kochia scoparia (kochia) (herbicide 7.5 g ae/ha alone), 68%; in the data set with Kochia scoparia (kochia) (herbicide 10 g ae/ha alone) it was 80%. Besides, the “% visual injury Obs” value in data set [5] (herbicide 7.5 g ae/ha alone) stood at 70%; in data set [5] (herbicide 10 g ae/ha alone), 55%; in data set [7] (herbicide 7.5 g ae/ha alone) it was 85%; in [7] (herbicide 10 g ae/ha alone), 100%; in data set [8] (herbicide 7.5 g ae/ha alone), 73%; in data set [8] (herbicide 10 g ae/ha alone), 80%. Also, the “% visual injury Obs” value in data set [9] (herbicide 7.5 g ae/ha alone) worked out at 10%; in [9] (herbicide 10 g ae/ha alone), 40%; in data set [10] (herbicide 7.5 g ae/ha alone), 45%; in data set [10] (herbicide 10 g ae/ha alone), 45%.
For `C[N+](C)(C)CCCl.[Cl-]` [Chlormequat, Chlormequat chloride, reference compound], the “% visual injury Obs” value (in data set [1] (PGR 560 g ai/ha alone); in data set [12] (PGR 560 g ai/ha alone); in data set [3] (PGR 560 g ai/ha alone); in data set [4] (PGR 560 g ai/ha alone); in the data set with Kochia scoparia (kochia) (PGR 560 g ai/ha alone); in data set [5] (PGR 560 g ai/ha alone)) was 0% throughout. Also, the “% visual injury Obs” value in the data set with Glycine max (soybean) (PGR 560 g ai/ha alone) is 10%; in [6] (PGR 560 g ai/ha alone), 0%; in data set [7] (PGR 560 g ai/ha alone), 0%; in data set [8] (PGR 560 g ai/ha alone) it was 0% and 5%; in data set [9] (PGR 560 g ai/ha alone), 0% and 3%; in [10] (PGR 560 g ai/ha alone), 0%.
